Experimental data as given in patent US10323022B2, “Pyrrolidinyl urea, pyrrolidinyl thiourea and pyrrolidinyl guanidine compounds as TrkA kinase inhibitors” (Array BioPharma Inc., priority 2011, dated 2019).

Target: TrkA (Homo sapiens (Human), UniProt P04629)
Test: TrkA Omnia Assay
Format: biochemical
Settings: averaged IC50; 20 nM enzyme, 500 μM ATP, 10 μM peptide substrate
Description: Trk enzymatic selectivity was assessed using Omnia™ Kinase Assay reagents from Invitrogen Corp. Enzyme (TrkA from Invitrogen Corp.) and test compound (various concentrations) were incubated for 10 minutes at ambient temperature in a 384-well white polypropylene plate (Nunc catalog#267462). Omnia Tyr Peptide #4, as well as ATP, were then added to the plate. Final concentrations were as follows: 20 nM enzyme, 500 μM of ATP, 10 μM peptide substrate. The assay buffer consisted of 25 mM MOPS pH 7.5, 0.005% (v/v) Triton X-100 and 5 mM MgCl2. The production of phosphorylated peptide was monitored continuously for 70 minutes using a Molecular Devices FlexStation II^384 microplate reader (excitation=360 nm; emission=485 nm). Initial rates were calculated from the progress curves. IC50 values were calculated from these rates using either a 4 or 5-parameter logistic curve fit.

TrkA, sequence (P04629 33-796): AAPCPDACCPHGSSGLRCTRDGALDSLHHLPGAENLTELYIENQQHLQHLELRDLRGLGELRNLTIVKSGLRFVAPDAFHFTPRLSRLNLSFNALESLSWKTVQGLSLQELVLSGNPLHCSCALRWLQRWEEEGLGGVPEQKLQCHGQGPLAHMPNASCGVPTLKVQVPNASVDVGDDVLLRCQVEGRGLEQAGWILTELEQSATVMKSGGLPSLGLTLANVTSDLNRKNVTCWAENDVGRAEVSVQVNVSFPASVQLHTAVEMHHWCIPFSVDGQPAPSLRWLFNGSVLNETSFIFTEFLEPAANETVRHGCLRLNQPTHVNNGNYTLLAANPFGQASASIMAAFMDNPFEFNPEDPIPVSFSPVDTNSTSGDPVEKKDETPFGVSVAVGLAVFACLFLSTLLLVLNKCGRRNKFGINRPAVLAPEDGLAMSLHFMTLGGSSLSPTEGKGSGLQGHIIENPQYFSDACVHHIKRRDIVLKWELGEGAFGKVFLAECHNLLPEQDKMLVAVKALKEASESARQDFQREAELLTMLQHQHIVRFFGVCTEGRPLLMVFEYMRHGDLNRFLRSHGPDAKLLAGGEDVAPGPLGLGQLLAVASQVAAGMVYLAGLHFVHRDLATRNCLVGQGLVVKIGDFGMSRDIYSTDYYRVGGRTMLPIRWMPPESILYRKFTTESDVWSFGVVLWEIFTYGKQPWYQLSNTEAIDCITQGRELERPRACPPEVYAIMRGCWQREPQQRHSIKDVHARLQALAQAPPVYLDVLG

IC50, 1000 to 10000 nM:
COCCN1C[C@@H](NC(=O)Nc2c3c(nn2-c2ccccn2)CCC3)[C@H](c2ccccc2)C1 (relative stereo) [Example 35, 1-(trans-1-(2-methoxyethyl)-4-phenylpyrrolidin-3-yl)-3-(2-(pyridin-2-yl)-2,4,5,6-tetrahydrocyclopenta[c]pyrazol-3-yl)urea]
COCCN1C[C@@H](NC(=O)Nc2c3c(nn2-c2ccccc2)CCC3)[C@H](c2cnco2)C1 (relative stereo) [Example 46, 1-(trans-1-(2-methoxyethyl)-4-(oxazol-5-yl)pyrrolidin-3-yl)-3-(2-phenyl-2,4,5,6-tetrahydrocyclopenta[c]pyrazol-3-yl)urea]

IC50, 100 to 1000 nM:
COCCN1C[C@@H](NC(=O)Nc2c(-c3ccccc3)cnn2C)[C@H](c2ccccc2)C1 (relative stereo) [Example 31, 1-(trans-1-(2-methoxyethyl)-4-phenylpyrrolidin-3-yl)-3-(1-methyl-4-phenyl-1H-pyrazol-5-yl)urea]
COCCN1C[C@@H](NC(=O)Nc2c(C#N)c(C)nn2-c2ccccc2)[C@H](c2ccccc2)C1 (relative stereo) [Example 32, 1-(4-cyano-3-methyl-1-phenyl-1H-pyrazol-5-yl)-3-(trans-1-(2-methoxy-ethyl)-4-phenylpyrrolidin-3-yl)urea]
COCCN1C[C@@H](NC(=O)Nc2c3c(nn2-c2cnn(C)c2)CCC3)[C@H](c2ccccc2)C1 (relative stereo) [Example 33, 1-(trans-1-(2-methoxyethyl)-4-phenylpyrrolidin-3-yl)-3-(2-(1-methyl-1H-pyrazol-4-yl)-2,4,5,6-tetrahydrocyclo-penta[c]pyrazol-3-yl)urea]
COCCN1C[C@@H](NC(=O)Nc2cc(C(C)C)nn2-c2ccccc2)[C@H](c2ccccc2F)C1 (relative stereo) [Example 43, trans-1-(4-(2-fluorophenyl)-1-(2-methoxyethyl)pyrrolidin-3-yl)-3-(3-isopropyl-1-phenyl-1H-pyrazol-5-yl)urea]
COCCN1C[C@@H](NC(=O)Nc2c3c(nn2-c2ccccc2)CCC3)[C@H](c2ccno2)C1 (relative stereo) [Example 47, 1-(trans-4-(isoxazol-5-yl)-1-(2-methoxyethyl)pyrrolidin-3-yl)-3-(2-phenyl-2,4,5,6-tetrahydrocyclopenta[c]pyrazol-3-yl)urea]
CSCCN1C[C@@H](NC(=O)Nc2c3c(nn2-c2ccccc2)CCC3)[C@H](c2ccccc2)C1 (relative stereo) [Example 183, 1-(trans-1-(2-(methylthio)ethyl)-4-phenylpyrrolidin-3-yl)-3-(2-phenyl-2,4,5,6-tetrahydrocyclopenta[c]pyrazol-3-yl)urea]
CCN1C[C@@H](NC(=O)Nc2c3c(nn2-c2ccccc2)CCC3)[C@H](c2ccccc2)C1 (relative stereo) [Example 193, 1-((trans)-1-ethyl-4-phenylpyrrolidin-3-yl)-3-(2-phenyl-2,4,5,6-tetrahydrocyclopenta[c]pyrazol-3-yl)urea]
O=C(Nc1c2c(nn1-c1ccccc1)CCC2)N[C@@H]1CN(C(CF)CF)C[C@H]1c1ccccc1 (relative stereo) [Example 206, 1-((trans)-1-(1,3-difluoropropan-2-yl)-4-phenylpyrrolidin-3-yl)-3-(2-phenyl-2,4,5,6-tetrahydrocyclopenta[c]pyrazol-3-yl)urea]

IC50, < 100 nM:
COCCN1C[C@@H](NC(=O)Nc2c3c(nn2-c2ccccc2)C(C)(C)CCC3)[C@H](c2ccccc2)C1 (relative stereo) [Example 37, 1-(7,7-dimethyl-2-phenyl-4,5,6,7-tetrahydro-2H-indazol-3-yl)-3-(trans-1-(2-methoxyethyl)-4-phenylpyrrolidin-3-yl)urea]
COCCN1C[C@@H](NC(=O)Nc2c3c(nn2-c2ccccc2)CCC3)[C@H](c2ccncc2)C1 (relative stereo) [Example 38, 1-(trans-1-(2-methoxyethyl)-4-(pyridin-4-yl)pyrrolidin-3-yl)-3-(2-phenyl-2,4,5,6-tetrahydrocyclopenta[c]pyrazol-3-yl)urea]
COCCN1C[C@@H](NC(=O)Nc2c3c(nn2-c2ccccc2)CCC3)[C@H](c2cccc(F)c2)C1 (relative stereo) [Example 39, trans-1-(4-(3-fluorophenyl)-1-(2-methoxyethyl)pyrrolidin-3-yl)-3-(2-phenyl-2,4,5,6-tetrahydrocyclopenta[c]pyrazol-3-yl)urea]
COCCN1C[C@@H](NC(=O)Nc2cc(C(C)C)nn2-c2ccccc2)[C@H](c2cccc(F)c2)C1 (relative stereo) [Example 40, trans-1-(-4-(3-fluorophenyl)-1-(2-methoxyethyl)pyrrolidin-3-yl)-3-(3-isopropyl-1-phenyl-1H-pyrazol-5-yl)urea]
COCCN1C[C@@H](NC(=O)Nc2cc(C(C)C)nn2-c2ccccc2)[C@H](c2ccc(F)cc2)C1 (relative stereo) [Example 41, trans-1-(4-(4-fluorophenyl)-1-(2-methoxyethyl)pyrrolidin-3-yl)-3-(3-isopropyl-1-phenyl-1H-pyrazol-5-yl)urea]
COCCN1C[C@@H](NC(=O)Nc2cc(C(C)C)nn2-c2ccccc2)[C@H](c2cccc(Cl)c2)C1 (relative stereo) [Example 42, trans-1-(4-(3-chlorophenyl)-1-(2-methoxyethyl)pyrrolidin-3-yl)-3-(3-isopropyl-1-phenyl-1H-pyrazol-5-yl)urea]
COCCN1C[C@@H](NC(=O)Nc2cc(C(C)C)nn2-c2ccccc2)[C@H](c2cccs2)C1 (relative stereo) [Example 44, trans-1-(3-isopropyl-1-phenyl-1H-pyrazol-5-yl)-3-(1-(2-methoxyethyl)-4-(thiophen-2-yl)pyrrolidin-3-yl)urea]
O=C(Nc1c2c(nn1-c1ccccc1)CCC2)N[C@@H]1CN(CCOC(F)(F)F)C[C@H]1c1ccccc1 (relative stereo) [Example 182, 1-(trans-4-phenyl-1-(2-(trifluoromethoxy)ethyl)pyrrolidin-3-yl)-3-(2-phenyl-2,4,5,6-tetrahydrocyclopenta[c]pyrazol-3-yl)urea]
O=C(Nc1c2c(nn1-c1ccccc1)CCC2)N[C@@H]1CN(CC(F)(F)F)C[C@H]1c1ccccc1 (relative stereo) [Example 194, 1-((trans)-4-phenyl-1-(2,2,2-trifluoroethyl)pyrrolidin-3-yl)-3-(2-phenyl-2,4,5,6-tetrahydrocyclopenta[c]pyrazol-3-yl)urea]
Cc1nn(-c2ccccc2)c(NC(=O)N[C@@H]2CN(CC(F)(F)F)C[C@H]2c2ccccc2)c1C (relative stereo) [Example 195, 1-(3,4-dimethyl-1-phenyl-1H-pyrazol-5-yl)-3-((trans)-4-phenyl-1-(2,2,2-trifluoroethyl)pyrrolidin-3-yl)urea]
COCCOc1nn(-c2ccccc2)c(NC(=O)N[C@@H]2CN(CC(F)(F)F)C[C@H]2c2ccccc2)c1C (relative stereo) [Example 196, 1-(3-(2-methoxyethoxy)-4-methyl-1-phenyl-1H-pyrazol-5-yl)-3-((trans)-4-phenyl-1-(2,2,2-trifluoroethyl)pyrrolidin-3-yl)urea]
